From patent publication US9133505B2 (priority 2010, dated 2015)
Values joined by “and” are separate entries in the source; they are usually repeats but may differ in a detail not shown here. Equal values may be shown once. Read-outs that look alike come from different tables or passages of the source.

What was measured:
[1] = tested on: Pig-A mutant phenotype RBCs and RETs
[2] = tested on: reticulocytes; test: Percentage of reticulocytes among total erythrocytes (bone marrow toxicity), pre-magnetic field analysis
[3] = Mortality in 28-day 1,3-PS study; format: in vivo, Sprague Dawley rat; conditions: 50 mg/kg/day oral gavage, group of six male rats
Protocol: Groups consisting of six male Sprague Dawley rats (7-8 weeks old) were treated on twenty-eight consecutive days (i.e., days 1 through 28) with either water (vehicle), 12.5 mg 1,3-PS per kilogram body weight per day, 25 mg 1,3-PS per kilogram body weight per day, or 50 mg 1,3-PS per kilogram body weight per day via oral gavage. […] Tail vein blood specimens were collected on day −1 (i.e., one day before the start of treatment), and again on days 15, 29, and 42.

[4] = tested on: Pig-A mutant phenotype RBCs and RETs; test: Pig-A mutation assay, spiking experiment (Example 2); conditions: blood day 35
[5] = tested on: Pig-A mutant phenotype RBCs and RETs; test: Pig-A mutation assay, technical replicates (Example 1): flow cytometric scoring of CD59-negative RBCs/RETs before and after immunomagnetic separation; conditions: 60 mg/kg/day oral gavage days 1-3, blood day 29
[6] = 28 consecutive days oral gavage, 6 male rats per group, maximum observed on d29
[7] = 28 consecutive days oral gavage, 6 male rats per group, maximum observed on d42
[8] = "100" sample: 40 mg/kg/day 1,3-PS days 1-14, from pre- and post-magnetic field ratios (Table VI), listed as 100
[9] = "100" sample: 40 mg/kg/day 1,3-PS days 1-14, post-magnetic field, 4 min, listed as 100
[10] = "100" sample: 40 mg/kg/day 1,3-PS days 1-14, post-magnetic field, listed as 100
[11] = calculated from pre- and post-magnetic field ratios, technical replicates, listed as PS
[12] = post-magnetic field, 4 min acquisition, technical replicates, listed as PS
[13] = post-magnetic field, technical replicates, listed as PS
[14] = pre-magnetic field, 3 min acquisition, technical replicates of one rat, listed as PS

**Q.** Which results are given for `O=S1(=O)CCCO1` [1,3-Propane Sultone, 1,3-propane sultone]?
**A.** Mutant RBC frequency versus vehicle-treated rats (in words) ([1]; 12.5, 25, 50 (reduced to 37.5) mg/kg/day for 28 days, Day 15 through Day 42, FIG. 5C): significantly higher than those observed in vehicle-treated rats from Day 15 through Day 42; Mutant RET frequency versus vehicle controls (in words) ([1]; 12.5, 25, 50 (reduced to 37.5) mg/kg/day for 28 days, days 15, 29, 42, FIG. 5B, Dunnett's t-test p<0.05): each dose group was significantly elevated relative to vehicle controls at every time point studied; Maximum Avg. Mutant Cell Freq., Mutant RETs [1, 6]: 106 Mutant RETs (d29); × 10^−6; Maximum Avg. Mutant Cell Freq., Mutant RBCs [1, 7]: 72 Mutant RBCs (d42) × 10^−6; % RET ([2]; 60 mg/kg/day oral gavage days 1-3, blood day 29, technical replicates, listed as PS): 4.02% and 4.08% (2×); % RET versus vehicle (in words) ([2]; 12.5, 25, 50 (reduced to 37.5) mg/kg/day for 28 days, Day 15, FIG. 5A): reduced in a dose-dependent manner; % RET ([2]; "100" sample: 40 mg/kg/day 1,3-PS oral gavage days 1-14, blood day 35, listed as 100): 5.92% and 5.9%; Mortality [3]: one rat in the high dose group died on day 11; Mutant RBCs per 10^6 Total RBCs [4, 8]: 30 per 10^6 Total RBCs and 34.1 per 10^6 Total RBCs; Mutant RETs per 10^6 Total RETs [4, 8]: 25.2 per 10^6 Total RETs and 31.2 per 10^6 Total RETs; Mutant RBCs per 10^6 Total RBCs (Post-Column) ([4]; "100" sample: 40 mg/kg/day 1,3-PS days 1-14, post-column, avg 112,632,575 RBCs interrogated per sample, listed as 100): 30 per 10^6 Total RBCs and 34.1 per 10^6 Total RBCs; Mutant NCEs (events counted), POST-Magnetic Field Analyses [4, 9]: 3,304 and 3,192; Mutant RETs (events counted), POST-Magnetic Field Analyses [4, 9]: 173 and 182; Mutant RBC:Bead Ratio, POST-Magnetic Field Analyses [4, 10]: 0.2402 and 0.2497; Mutant RET:Bead Ratio, POST-Magnetic Field Analyses [4, 10]: 0.01195 and 0.01347; Mutant RBCs per 10^6 Total RBCs (Pre-Column) ([4]; "100" sample: 40 mg/kg/day 1,3-PS days 1-14, pre-column, avg 1,323,693 RBCs interrogated per sample): 27 per 10^6 Total RBCs; Mutant NCEs (events counted), PRE-Magnetic Field Analyses ([4]; "100" sample: 40 mg/kg/day 1,3-PS days 1-14, pre-magnetic field, 3 min, listed as 100): 36 and 31; Mutant RETs (events counted), PRE-Magnetic Field Analyses ([4]; "100" sample: blood of rat given 40 mg/kg/day 1,3-PS oral gavage days 1-14, pre-magnetic field, 3 min): 1; Frequencies of mutant phenotype RBCs and RETs versus vehicle (in words) [5]: clearly led to elevated frequencies of mutant phenotype RBCs and RETs; Mutant RBCs per 10^6 Total RBCs [5, 11]: 61.1 per 10^6 Total RBCs and 65.7 per 10^6 Total RBCs and 55 per 10^6 Total RBCs; Mutant RETs per 10^6 Total RETs [5, 11]: 22 per 10^6 Total RETs and 16.6 per 10^6 Total RETs and 17.7 per 10^6 Total RETs; Mutant NCEs (events counted), POST-Magnetic Field Analyses [5, 12]: 6,466 and 7,590 and 7,054; Mutant RETs (events counted), POST-Magnetic Field Analyses [5, 12]: 95 and 79 and 94; Mutant RBC:Bead Ratio, POST-Magnetic Field Analyses [5, 13]: 0.4138 and 0.4132 (2×); Mutant RET:Bead Ratio, POST-Magnetic Field Analyses [5, 13]: 0.00599 and 0.00426 and 0.3748; Mutant NCEs (events counted), PRE-Magnetic Field Analyses [5, 14]: 83 and 75 and 64; Mutant RETs (events counted), PRE-Magnetic Field Analyses [5, 14]: 1 (2×) and 2

**Q.** For `CC(=O)Nc1ccc2c(c1)Cc1ccccc1-2` [2-Acetylaminofluorene], which “Maximum Avg. Mutant Cell Freq., Mutant RBCs” value [1, 6] is on record?
**A.** 58 Mutant RBCs (d29) × 10^−6

**Q.** And the “Maximum Avg. Mutant Cell Freq., Mutant RETs” value [1, 7]?
**A.** 50 Mutant RETs (d42); × 10^−6

**Q.** With `Cn1cnc([N+](=O)[O-])c1Sc1ncnc2nc[nH]c12` [Azathioprine] as the compound, how does the “Maximum Avg. Mutant Cell Freq., Mutant RETs” value ([1]; male, Sprague Dawley, rat, in vivo, po, 29 day) read?
**A.** 13 Mutant RETs (d29); × 10^−6

**Q.** And the “Maximum Avg. Mutant Cell Freq., Mutant RBCs” value ([1]; male, Sprague Dawley, rat, in vivo, po, 42 day)?
**A.** 4 Mutant RBCs (d42) × 10^−6

**Q.** With `O=C(O)CCCc1ccc(N(CCCl)CCCl)cc1` [Chlorambucil] as the compound, how does the “Maximum Avg. Mutant Cell Freq., Mutant RBCs” value [1, 7] read?
**A.** 21 Mutant RBCs (d42) × 10^−6

**Q.** What about the “Maximum Avg. Mutant Cell Freq., Mutant RETs” value [1, 7] of the same compound?
**A.** 40 Mutant RETs (d42); × 10^−6

**Q.** Which “Maximum Avg. Mutant Cell Freq., Mutant RETs” value [1, 6] does the source give for `O=P1(N(CCCl)CCCl)NCCCO1` (stereo not drawn) [Cyclophosphamide] here?
**A.** 5 Mutant RETs (d29); × 10^−6

**Q.** And the “Maximum Avg. Mutant Cell Freq., Mutant RBCs” value [1, 7]?
**A.** 3 Mutant RBCs (d42) × 10^−6

**Q.** What does the source list for `N[C@@H](Cc1ccc(N(CCCl)CCCl)cc1)C(=O)O` [Melphalan]?
**A.** Maximum Avg. Mutant Cell Freq., Mutant RBCs [1, 7]: 23 Mutant RBCs (d42) × 10^−6; Maximum Avg. Mutant Cell Freq., Mutant RETs [1, 7]: 33 Mutant RETs (d42); × 10^−6

**Q.** Which “Maximum Avg. Mutant Cell Freq., Mutant RETs” value [1, 6] does the source give for `S=P(N1CC1)(N1CC1)N1CC1` [Thiotepa] here?
**A.** 79 Mutant RETs (d29); × 10^−6

**Q.** What about the “Maximum Avg. Mutant Cell Freq., Mutant RBCs” value [1, 7] of the same compound?
**A.** 69 Mutant RBCs (d42) × 10^−6
